From ChEMBL document CHEMBL1201862, “PubChem BioAssay data set” (2004)
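A five-concentration, 48-hour dose response in 96-well plates underlies each endpoint, interpolated linearly between surrounding concentrations. Here, GI50 denotes the concentration required for 50% inhibition of growth.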 Active and inactive are the calls of the source. Rule as the data show it: active = GI50 up to about 1.1 µM and inactive = higher.

How the values were obtained:
Assay in all cases: inhibition of tumour cell growth, NCI panel, 48 h
[1] = test system: HOP-92
[2] = test system: IGROV-1
[3] = test system: HT-29
[4] = test system: SK-MEL-2
[5] = test system: SR
[6] = test system: OVCAR-4
[7] = test system: KM12
[8] = test system: TK-10
[9] = test system: SK-MEL-5
[10] = test system: RPMI-8226
[11] = test system: DU-145
[12] = test system: SK-MEL-28
[13] = test system: UO-31
[14] = test system: ACHN
[15] = test system: HCC 2998
[16] = test system: NCI-H23
[17] = test system: SN12C
[18] = test system: HL-60
[19] = test system: SF-539
[20] = test system: A498

**Q.** What does the source list for `CC(NC(=O)C(N)CC(=O)O)C(=O)OC12CC3CC(CC(C3)C1)C2` (stereo not given)?
**A.** GI50 [1]: > 100 µM (inactive); GI50 [2]: > 100 µM (inactive); GI50 [3]: > 100 µM (inactive); GI50 [4]: > 100 µM (inactive); GI50 [5]: > 100 µM (inactive); GI50 [6]: > 100 µM (inactive); GI50 [7]: > 100 µM (inactive); GI50 [8]: > 100 µM (inactive); GI50 [9]: > 100 µM (inactive); GI50 [10]: > 100 µM (inactive); GI50 [11]: 13.4 µM (inactive); GI50 [12]: > 100 µM (inactive); GI50 [13]: > 100 µM (inactive); GI50 [14]: > 100 µM (inactive); GI50 [15]: > 100 µM (inactive); GI50 [16]: > 100 µM (inactive); GI50 [17]: > 100 µM (inactive)

**Q.** For `c1ccc2c(c1)SCCCS2`, which GI50 [1] is on record?
**A.** Its GI50 is 22.4 µM (inactive).

**Q.** What about the GI50 [18] of the same compound?
**A.** The GI50 was > 100 µM (inactive).

**Q.** What about the GI50 [2] of the same compound?
**A.** Its GI50 is > 100 µM (inactive).

**Q.** And the GI50 [3]?
**A.** The GI50 was > 100 µM (inactive).

**Q.** What about the GI50 [5] of the same compound?
**A.** The GI50 was > 100 µM (inactive).

**Q.** And the GI50 [19]?
**A.** The GI50 was > 100 µM (inactive).

**Q.** What about the GI50 [6] of the same compound?
**A.** Its GI50 is > 100 µM (inactive).

**Q.** And the GI50 [7]?
**A.** Its GI50 is > 100 µM (inactive).

**Q.** And the GI50 [8]?
**A.** Its GI50 is > 100 µM (inactive).

**Q.** What about the GI50 [9] of the same compound?
**A.** The GI50 was > 100 µM (inactive).

**Q.** And the GI50 [11]?
**A.** The GI50 was > 100 µM (inactive).

**Q.** And the GI50 [12]?
**A.** Its GI50 is > 100 µM (inactive).

**Q.** And the GI50 [13]?
**A.** The GI50 was > 100 µM (inactive).

**Q.** And the GI50 [15]?
**A.** The GI50 was > 100 µM (inactive).

**Q.** What about the GI50 [16] of the same compound?
**A.** Its GI50 is > 100 µM (inactive).

**Q.** What about the GI50 [17] of the same compound?
**A.** The GI50 was > 100 µM (inactive).

**Q.** What does the source list for `COc1ccc(CC2c3cc(OC)c(OC)cc3CC[N+]2(C)C)cc1OC` (stereo not given)?
**A.** GI50 [1]: > 100 µM (inactive); GI50 [18]: > 100 µM (inactive); GI50 [2]: > 100 µM (inactive); GI50 [3]: > 100 µM (inactive); GI50 [20]: > 100 µM (inactive); GI50 [4]: > 100 µM (inactive); GI50 [19]: > 100 µM (inactive); GI50 [6]: > 100 µM (inactive); GI50 [7]: > 100 µM (inactive); GI50 [8]: > 100 µM (inactive); GI50 [9]: > 100 µM (inactive); GI50 [10]: > 100 µM (inactive); GI50 [11]: > 100 µM (inactive); GI50 [12]: > 100 µM (inactive); GI50 [13]: > 100 µM (inactive); GI50 [14]: > 100 µM (inactive); GI50 [15]: > 100 µM (inactive); GI50 [16]: > 100 µM (inactive); GI50 [17]: > 100 µM (inactive)

**Q.** Which results are given for `CO/C(=N\N=C\c1ccc(C(F)(F)F)cc1)c1ccncc1`?
**A.** GI50 [1]: > 10 µM (inactive); GI50 [18]: > 10 µM (inactive); GI50 [3]: > 10 µM (inactive); GI50 [4]: > 10 µM (inactive); GI50 [5]: > 10 µM (inactive); GI50 [6]: > 10 µM (inactive); GI50 [7]: > 10 µM (inactive); GI50 [8]: > 10 µM (inactive); GI50 [10]: > 10 µM (inactive); GI50 [11]: > 10 µM (inactive); GI50 [13]: > 10 µM (inactive); GI50 [14]: > 10 µM (inactive); GI50 [15]: > 10 µM (inactive); GI50 [16]: > 10 µM (inactive); GI50 [17]: > 10 µM (inactive)

**Q.** Which results are given for `CC1=NN(c2ccccc2)C(=O)/C1=C1\SC(c2ccccc2)(c2ccccc2)c2ccccc21`?
**A.** GI50 [1]: > 100 µM (inactive); GI50 [18]: > 100 µM (inactive); GI50 [2]: > 100 µM (inactive); GI50 [3]: 67.9 µM (inactive); GI50 [20]: > 100 µM (inactive); GI50 [4]: > 100 µM (inactive); GI50 [19]: > 100 µM (inactive); GI50 [6]: > 100 µM (inactive); GI50 [7]: > 100 µM (inactive); GI50 [8]: > 100 µM (inactive); GI50 [9]: > 100 µM (inactive); GI50 [10]: > 100 µM (inactive); GI50 [11]: > 100 µM (inactive); GI50 [12]: > 100 µM (inactive); GI50 [13]: > 100 µM (inactive); GI50 [14]: > 100 µM (inactive); GI50 [15]: > 100 µM (inactive); GI50 [16]: > 100 µM (inactive); GI50 [17]: > 100 µM (inactive)

**Q.** For `CCOc1cc2c(cc1O)C(=O)C[C@@H]1[C@@H]2CC[C@]2(C)[C@@H](O)CC[C@@H]12`, which GI50 [1] is on record?
**A.** The GI50 was 9.06 µM (inactive).

**Q.** And the GI50 [18]?
**A.** The GI50 was 0.185 µM (active).

**Q.** And the GI50 [2]?
**A.** The GI50 was 0.861 µM (active).

**Q.** What about the GI50 [3] of the same compound?
**A.** The GI50 was 6.87 µM (inactive).

**Q.** What about the GI50 [20] of the same compound?
**A.** Its GI50 is 0.269 µM (active).

**Q.** And the GI50 [4]?
**A.** The GI50 was 4.85 µM (inactive).

**Q.** And the GI50 [19]?
**A.** The GI50 was 0.155 µM (active).

**Q.** What about the GI50 [6] of the same compound?
**A.** Its GI50 is 35.1 µM (inactive).

**Q.** What about the GI50 [7] of the same compound?
**A.** The GI50 was 2.69 µM (inactive).

**Q.** What about the GI50 [8] of the same compound?
**A.** Its GI50 is > 13.4 µM (inactive).

**Q.** And the GI50 [9]?
**A.** The GI50 was 0.0634 µM (active).

**Q.** What about the GI50 [10] of the same compound?
**A.** The GI50 was 0.154 µM (active).

**Q.** And the GI50 [11]?
**A.** Its GI50 is 0.337 µM (active).

**Q.** And the GI50 [12]?
**A.** Its GI50 is 0.19 µM (active).

**Q.** What about the GI50 [13] of the same compound?
**A.** Its GI50 is 0.482 µM (active).

**Q.** And the GI50 [14]?
**A.** Its GI50 is 0.168 µM (active).

**Q.** What about the GI50 [15] of the same compound?
**A.** The GI50 was 1.36 µM (inactive).

**Q.** What about the GI50 [16] of the same compound?
**A.** Its GI50 is 0.33 µM (active).

**Q.** What about the GI50 [17] of the same compound?
**A.** Its GI50 is 0.353 µM (active).
